Legend:
human TRPA1 = molecular target: T1, human TRPA1 (Homo sapiens, UniProt O75762); experiment: 45Calcium uptake assay: inhibition of AITC induced cellular uptake of radioactive calcium, human TRPA1 expressing CHO cells; format: cell-based; conditions: AITC 30 μM; for inhibition at 1 µM: 1.0 μM compound, read-out: human TRPA1 Percentage inhibition at 1.0 μM; for inhibition at 10 µM: 10.0 μM compound, read-out: human TRPA1 Percentage inhibition at 10.0 μM
T1 construct: expressed in transfected cells; host or cells: CHO cells (G-418 selection)
Summary of the method: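 CHO cells expressing TRPA1 were preincubated 10 min with compound (0.5% DMSO final), then given AITC (30 μM human, 10 μM rat) plus 5 μCi/ml 45Ca2+ for 3 min. Lysate radioactivity measured by scintillation; IC50 obtained by nonlinear regression of % maximal response without antagonist.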

rat TRPA1 = molecular target: T2, rat TRPA1 (Rattus norvegicus, UniProt Q6RI86); experiment: 45Calcium uptake assay: inhibition of AITC induced cellular uptake of radioactive calcium, rat TRPA1 expressing CHO cells; format: cell-based; conditions: AITC 10 μM; for inhibition at 10 µM: 10.0 μM compound, read-out: rat TRPA1 Percentage inhibition at 10.0 μM; for inhibition at 1 µM: read-out: rat TRPA1 Percentage inhibition; for IC50: class symbols
T2 construct: expressed in transfected cells; host or cells: CHO cells (Zeocin selection)
Summary of the method: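 CHO cells expressing rat or human TRPA1 were pre-treated with compound for 10 min, then given AITC (30 μM human, 10 μM rat) plus 5 μCi/ml 45Ca2+ for 3 min; final DMSO 0.5%. Lysate radioactivity was counted by scintillation. IC50 came from nonlinear regression of concentration-response curves as % of maximal response.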

T2 sequence (Q6RI86 whole entry): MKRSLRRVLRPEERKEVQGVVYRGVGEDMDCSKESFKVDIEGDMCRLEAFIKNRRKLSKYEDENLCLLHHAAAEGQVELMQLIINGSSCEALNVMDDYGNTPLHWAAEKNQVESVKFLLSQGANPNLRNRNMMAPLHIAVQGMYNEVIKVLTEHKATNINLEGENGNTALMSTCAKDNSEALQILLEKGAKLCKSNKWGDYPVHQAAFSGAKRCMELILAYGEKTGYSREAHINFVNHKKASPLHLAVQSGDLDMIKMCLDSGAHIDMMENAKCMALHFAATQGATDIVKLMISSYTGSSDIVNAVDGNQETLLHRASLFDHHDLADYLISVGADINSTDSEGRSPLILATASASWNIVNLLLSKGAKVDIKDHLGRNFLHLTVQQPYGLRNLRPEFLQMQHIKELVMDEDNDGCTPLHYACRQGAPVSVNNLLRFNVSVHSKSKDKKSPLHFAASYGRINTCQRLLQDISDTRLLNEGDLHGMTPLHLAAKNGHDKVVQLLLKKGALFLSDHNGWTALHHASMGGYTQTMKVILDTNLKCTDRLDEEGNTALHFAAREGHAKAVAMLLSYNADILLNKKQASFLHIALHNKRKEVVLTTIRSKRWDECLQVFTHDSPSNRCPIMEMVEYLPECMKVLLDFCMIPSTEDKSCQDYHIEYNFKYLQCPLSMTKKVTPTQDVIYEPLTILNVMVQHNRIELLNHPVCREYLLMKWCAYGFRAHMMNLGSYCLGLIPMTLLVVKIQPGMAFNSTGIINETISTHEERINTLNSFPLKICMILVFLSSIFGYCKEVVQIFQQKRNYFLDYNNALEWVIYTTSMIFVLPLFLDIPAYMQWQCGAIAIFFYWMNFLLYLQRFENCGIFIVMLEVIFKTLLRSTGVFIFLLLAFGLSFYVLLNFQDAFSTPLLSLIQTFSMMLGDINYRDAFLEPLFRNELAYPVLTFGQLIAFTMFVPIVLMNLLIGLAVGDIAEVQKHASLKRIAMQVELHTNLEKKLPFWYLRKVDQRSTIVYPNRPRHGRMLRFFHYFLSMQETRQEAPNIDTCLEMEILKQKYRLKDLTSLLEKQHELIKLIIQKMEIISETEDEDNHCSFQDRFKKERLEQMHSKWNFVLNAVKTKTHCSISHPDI
T1 sequence (O75762 whole entry): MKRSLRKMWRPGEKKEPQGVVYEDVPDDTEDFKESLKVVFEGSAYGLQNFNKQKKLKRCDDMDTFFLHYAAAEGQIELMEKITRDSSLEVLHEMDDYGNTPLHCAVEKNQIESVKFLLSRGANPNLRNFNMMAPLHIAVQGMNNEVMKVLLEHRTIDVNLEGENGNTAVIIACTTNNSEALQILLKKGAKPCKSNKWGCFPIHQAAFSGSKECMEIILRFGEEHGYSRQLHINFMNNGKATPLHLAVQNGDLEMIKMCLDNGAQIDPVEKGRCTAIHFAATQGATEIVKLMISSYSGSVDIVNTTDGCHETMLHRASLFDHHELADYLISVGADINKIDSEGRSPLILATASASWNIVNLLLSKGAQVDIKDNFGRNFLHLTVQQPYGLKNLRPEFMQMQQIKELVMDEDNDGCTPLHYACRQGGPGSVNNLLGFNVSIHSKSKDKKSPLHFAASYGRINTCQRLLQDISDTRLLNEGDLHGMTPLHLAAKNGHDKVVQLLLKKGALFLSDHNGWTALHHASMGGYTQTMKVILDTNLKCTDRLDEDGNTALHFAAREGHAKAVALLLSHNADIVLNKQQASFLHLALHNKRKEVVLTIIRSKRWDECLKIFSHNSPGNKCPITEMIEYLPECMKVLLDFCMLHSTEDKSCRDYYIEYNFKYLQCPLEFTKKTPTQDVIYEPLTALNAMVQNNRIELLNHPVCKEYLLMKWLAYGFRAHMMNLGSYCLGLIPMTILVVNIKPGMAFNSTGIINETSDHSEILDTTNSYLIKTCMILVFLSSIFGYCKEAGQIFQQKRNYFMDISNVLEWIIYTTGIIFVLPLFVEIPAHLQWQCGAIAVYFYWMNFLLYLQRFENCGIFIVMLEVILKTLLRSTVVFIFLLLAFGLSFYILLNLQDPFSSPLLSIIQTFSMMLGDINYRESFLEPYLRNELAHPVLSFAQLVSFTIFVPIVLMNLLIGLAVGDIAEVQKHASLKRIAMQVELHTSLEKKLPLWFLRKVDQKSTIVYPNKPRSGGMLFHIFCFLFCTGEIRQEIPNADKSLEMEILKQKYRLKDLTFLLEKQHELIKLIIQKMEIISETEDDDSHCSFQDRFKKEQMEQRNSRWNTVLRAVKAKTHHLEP

inhibition at 1 µM (human TRPA1) | inhibition at 10 µM (human TRPA1) | IC50 (human TRPA1; class symbols) | inhibition at 10 µM (rat TRPA1) | inhibition at 1 µM (rat TRPA1) | IC50 (rat TRPA1) | IC50 (human TRPA1; numeric values) | Compound
– | – | > 0.1 µM | 100% | 96.7% | – | – | Cn1c(=O)c2c(CC(=O)Nc3ccc(Oc4ccc(C(F)(F)F)cc4)cc3)coc2n(C)c1=O [Example 1, N1-[4-(4-Trifluoromethylphenoxy)phenyl]-2-(1,3-dimethyl-2,4-dioxo-1,2,3,4-tetrahydrofuro[2,3-d]pyrimidin-5-yl)acetamide]
98.3% | 99.8% | < 0.05 µM | 100% | 96.8% | 0.05 to 0.1 µM | – | Cn1c(=O)c2c(CC(=O)Nc3nc(-c4ccc(OCC(F)(F)F)c(Cl)c4)cs3)coc2n(C)c1=O [Example 31, N1-{4-[3-Chloro-4-(2,2,2-trifluoroethoxy)phenyl]-1,3-thiazol-2-yl}2-(1,3-dimethyl-2,4-dioxo-1,2,3,4-tetrahydrofuro[2,3-d]pyrimidin-5-yl)acetamide]
– | – | – | 98.8% | – | 0.05 to 0.1 µM | 0.00972 µM | Cc1oc2c(c1CC(=O)Nc1nc(-c3cc(F)c(OCC4CC4)c(F)c3)cs1)c(=O)n(C)c(=O)n2C [Example 89, N1-{4-[4-(Cyclopropylmethoxy)-3,5-difluorophenyl]-1,3-thiazol-2-yl]-2-(1,3,6-trimethyl-2,4-dioxo-1,2,3,4-tetrahydrofuro[2,3-d]pyrimidin-5-yl)acetamide]
– | – | – | – | – | < 0.05 µM | 0.00168 µM | Cc1oc2c(c1CC(=O)Nc1nc(-c3cc(F)c(OCC(F)(F)F)c(F)c3)cs1)c(=O)n(C)c(=O)n2C [Example 87, N1-{4-[3,5-Difluoro-4-(2,2,2-trifluoroethoxy)phenyl]-1,3-thiazol-2-yl}-2-(1,3,6-trimethyl-2,4-dioxo-1,2,3,4-tetrahydrofuro[2,3-d]pyrimidin-5-yl)acetamide]
97.4% | 100% | < 0.05 µM | 100% | 97.1% | > 0.1 µM | – | Cn1c(=O)c2c(CC(=O)Nc3nc(-c4ccc(OCC(F)(F)F)c(F)c4)cs3)coc2n(C)c1=O [Example 30, N1-{4-[3-Fluoro-4-(2,2,2-trifluoroethoxy)phenyl]-1,3-thiazol-2-yl}2-(1,3-dimethyl-2,4-dioxo-1,2,3,4-tetrahydrofuro[2,3-d]pyrimidin-5-yl)acetamide]
99.8% | 100% | < 0.05 µM | 99.5% | 96.1% | 0.05 to 0.1 µM | – | Cn1c(=O)c2c(CC(=O)Nc3nc(-c4cc(F)c(OCC(F)(F)F)c(F)c4)cs3)coc2n(C)c1=O [Example 46, N1-{4-[3,5-Difluoro-4-(2,2,2-trifluoroethoxy)phenyl]-1,3-thiazol-2-yl}-2-(1,3-dimethyl-2,4-dioxo-1,2,3,4-tetrahydrofuro[2,3-d]pyrimidin-5-yl)acetamide]
96.6% | 95.1% | < 0.05 µM | 99.2% | 99.6% | < 0.05 µM | – | Cn1c(=O)c2c(CC(=O)Nc3nc(-c4cc(F)c(OCC(F)(F)F)c(Cl)c4)cs3)coc2n(C)c1=O [Example 48, N1-{4-[3-Chloro-5-fluoro-4-(2,2,2-trifluoroethoxy)phenyl]-1,3-thiazol-2-yl}-2-(1,3-dimethyl-2,4-dioxo-1,2,3,4-tetrahydrofuro[2,3-d]pyrimidin-5-yl)acetamide]
– | – | < 0.05 µM | 99.7% | 99.3% | 0.05 to 0.1 µM | – | Cc1oc2c(c1CC(=O)Nc1nc(-c3ccc(C(F)(F)F)cc3F)cs1)c(=O)n(C)c(=O)n2C [Example 60, N1-{-4-(2-Fluoro-4-(trifluoromethyl)phenyl]-1,3-thiazol-2-yl}-2-(1,3,6-trimethyl-2,4-dioxo-1,2,3,4-tetrahydrofuro[2,3-d]pyrimidin-5-yl)acetamide]
– | – | – | – | – | 0.05 to 0.1 µM | 0.00765 µM | Cc1oc2c(c1CC(=O)Nc1nc(-c3cc(F)c(F)c(F)c3)cs1)c(=O)n(C)c(=O)n2C [Example 76, N1-[4-(3,4,5-Trifluorophenyl)-1,3-thiazol-2-yl]-2-(1,3,6-trimethyl-2,4-dioxo-1,2,3,4-tetrahydrofuro[2,3-d]pyrimidin-5-yl)acetamide]
95.6% | 98.3% | < 0.05 µM | 97.7% | 86.6% | < 0.05 µM | – | Cn1c(=O)c2c(CC(=O)Nc3nc(-c4cc(F)c(OCCC(F)(F)F)c(F)c4)cs3)coc2n(C)c1=O [Example 49, N1-{4-[3,5-Difluoro-4-(3,3,3-trifluoropropoxy)phenyl]-1,3-thiazol-2-yl}-2-(1,3-dimethyl-2,4-dioxo-1,2,3,4-tetrahydrofuro[2,3-d]pyrimidin-5-yl)acetamide]
99.8% | 98.4% | < 0.05 µM | – | – | < 0.05 µM | – | Cn1c(=O)c2c(CC(=O)Nc3nc(-c4ccc(F)c(C(F)(F)F)c4F)cs3)coc2n(C)c1=O [Example 35, N1-{4-[2,4-Difluoro-3-(trifluoromethyl)phenyl]-1,3-thiazol-2-yl}2-(1,3-dimethyl-2,4-dioxo-1,2,3,4-tetrahydrofuro[2,3-d]pyrimidin-5-yl)acetamide]
96.3% | 99% | < 0.05 µM | 95.5% | 92.6% | > 0.1 µM | – | Cn1c(=O)c2c(CC(=O)Nc3nc(-c4ccc(OC(F)F)c(F)c4)cs3)coc2n(C)c1=O [Example 23, N1-[4-(3-Fluoro-4-difluoromethoxyphenyl)-1,3-thiazol-2-yl]-2-(1,3-dimethyl-2,4-dioxo-1,2,3,4-tetrahydrofuro[2,3-d]pyrimidin-5-yl)acetamide]
– | – | 0.05 to 0.1 µM | 99.8% | 97.6% | – | – | Cc1oc2c(c1CC(=O)Nc1nc(-c3cc(C(F)(F)F)ccc3F)cs1)c(=O)n(C)c(=O)n2C [Example 63, N1-{4-[2-Fluoro-5-(trifluoromethyl)phenyl]-1,3-thiazol-2-yl}-2-(1,3,6-trimethyl-2,4-dioxo-1,2,3,4-tetrahydrofuro[2,3-d]pyrimidin-5-yl)acetamide]
– | – | < 0.05 µM | – | – | 0.05 to 0.1 µM | – | Cc1oc2c(c1CC(=O)Nc1nc(-c3ccc(Cl)c(Cl)c3)cs1)c(=O)n(C)c(=O)n2C [Example 54, N1-[4-(3,4-Dichlorophenyl)-1,3-thiazol-2-yl]-2-(1,3,6-trimethyl-2,4-dioxo-1,2,3,4-tetrahydrofuro[2,3-d]pyrimidin-5-yl)acetamide]
99.9% | 100% | < 0.05 µM | 94.1% | 99.9% | 0.05 to 0.1 µM | – | Cn1c(=O)c2c(CC(=O)Nc3nc(-c4ccc(Cl)c(C(F)(F)F)c4)cs3)coc2n(C)c1=O [Example 18, N1-{4-[4-Chloro-3-(trifluoromethyl)phenyl]-1,3-thiazol-2-yl}-2-(1,3-dimethyl-2,4-dioxo-1,2,3,4-tetrahydrofuro[2,3-d]pyrimidin-5-yl)acetamide]
– | – | – | 100% | 100% | – | 0.00657 µM | Cc1oc2c(c1CC(=O)Nc1nc(-c3cc(F)c(OC(F)F)c(F)c3)cs1)c(=O)n(C)c(=O)n2C [Example 85, N1-{4-[3,5-Difluoro-4-(difluoromethoxy)phenyl]-1,3-thiazol-2-yl}-2-(1,3,6-trimethyl-2,4-dioxo-1,2,3,4-tetrahydrofuro[2,3-d]pyrimidin-5-yl)acetamide]
97.1% | 99.2% | > 0.1 µM | 100% | 93.1% | – | – | Cn1c(=O)c2c(CC(=O)Nc3nc(-c4ccc(OCC(C)(C)C)c(Cl)c4)cs3)coc2n(C)c1=O [Example 27, N1-{4-[3-Chloro-4-(2,2-dimethylpropoxy)phenyl]-1,3-thiazol-2-yl}-2-(1,3-dimethyl-2,4-dioxo-1,2,3,4-tetrahydrofuro[2,3-d]pyrimidin-5-yl)acetamide]
– | – | < 0.05 µM | – | – | 0.05 to 0.1 µM | – | Cc1oc2c(c1CC(=O)Nc1nc(-c3ccc(C(F)(F)F)c(F)c3)cs1)c(=O)n(C)c(=O)n2C [Example 59, N1-{4-[3-Fluoro-4-(trifluoromethyl)phenyl]-1,3-thiazol-2-yl}-2-(1,3,6-trimethyl-2,4-dioxo-1,2,3,4-tetrahydrofuro[2,3-d]pyrimidin-5-yl)acetamide]
– | – | < 0.05 µM | 100% | 100% | < 0.05 µM | – | Cc1oc2c(c1CC(=O)Nc1nc(-c3ccc(OCC(F)(F)F)c(Cl)c3)cs1)c(=O)n(C)c(=O)n2C [Example 74, N1-{4-[3-Chloro-4-(2,2,2-trifluoroethoxy)phenyl]-1,3-thiazol-2-yl}-2-(1,3,6-trimethyl-2,4-dioxo-1,2,3,4-tetrahydrofuro[2,3-d]pyrimidin-5-yl)acetamide]

Compound | inhibition at 1 µM (human TRPA1) | inhibition at 10 µM (human TRPA1) | IC50 (human TRPA1; class symbols) | inhibition at 10 µM (rat TRPA1) | inhibition at 1 µM (rat TRPA1) | IC50 (rat TRPA1) | IC50 (human TRPA1; numeric values)
CC(C)COc1c(Cl)cc(-c2csc(NC(=O)Cc3coc4c3c(=O)n(C)c(=O)n4C)n2)cc1Cl [Example 41, N1-[4-(3,5-Dichloro-4-isobutoxyphenyl)-1,3-thiazol-2-yl]-2-(1,3-dimethyl-2,4-dioxo-1,2,3,4-tetrahydrofuro[2,3-d]pyrimidin-5-yl)acetamide] | 99.6% | 100% | < 0.05 µM | 100% | 99.5% | < 0.05 µM | –

From patent publication US20120178766A1, “FUROPYRIMIDINEDIONE DERIVATIVES AS TRPAI MODULATORS” (priority 2009, published 2012)
